8 molecules from patent US9512075B2 (OKAYAMA UNIVERSITY, priority 2012, dated 2016) can be followed below.

Holding throughout (type): cell-based
The subject of experiment [1] is Enterococcus faecalis 5038 strain. Kind of experiment: MIC for Enterococcus faecalis 5038 strain. As to conditions: 5038 strain, Heart Infusion Broth medium, 37° C. overnight, turbidity, read-out: MIC Enterococcus faecalis 5038.
For experiment [2], the system named is Staphylococcus aureus MRSA No. 17 (methicillin-resistant Staphylococcus aureus: MRSA). Kind of experiment: MIC for Staphylococcus aureus MRSA No. 17. Particulars: MRSA No. 17, regular bouillon medium, 37° C. overnight, turbidity, read-out: MIC Straphyrococcus aureus MRSA No. 17 (MRSA).
Experiment [3] relates to Escherichia coli BE1121 strain. Kind of experiment: MIC for Escherichia coli BE1121 strain. Particulars: Escherichia coli, BE1121STRAIN; BE1121 strain; regular bouillon medium, 37° C. overnight, turbidity; read-out: MIC Escherichia coli BE1121.
Experiment [4] has as its system Clostridium difficile JCM1296 strain. Kind of experiment: microbe, parasite or virus in culture. As to conditions: Clostridioides difficile, JCM1296, read-out: MIC Clostridium difficile JCM1296.
For experiment [5], the system named is Staphylococcus aureus Smith strain. Kind of experiment: MIC for Staphylococcus aureus Smith strain. As to conditions: Smith strain, regular bouillon medium, 37° C. overnight, turbidity, read-out: MIC Straphyrococcus aureus Smith.
Experiment [6] deals with Escherichia coli K-12 strain. Kind of experiment: MIC for Escherichia coli K-12 strain. As to conditions: Escherichia coli, K12STRAIN; K-12 strain; regular bouillon medium, 37° C. overnight, turbidity; read-out: MIC Escherichia coli K12.
Experiment [7] relates to Clostridium perfringens PB6K strain. Kind of experiment: microbe, parasite or virus in culture. As to conditions: Clostridium perfringens, PB6KSTRAIN, read-out: MIC Clostridium perfringens PB6K, PB6K strain; CD medium, 37° C. overnight, 10% CO2-containing anaerobic conditions.
Experiment [8] relates to Staphylococcus aureus 209P strain. Kind of experiment: MIC for Staphylococcus aureus 209P strain. Particulars: Staphylococcus aureus; 209P strain; regular bouillon medium, 37° C. overnight, turbidity; read-out: MIC Straphyrococcus aureus 209P.
Experiment [9] concerns Enterococcus faecalis NCTC12201 strain (vancomycin-resistant Enterococcus: VRE). Kind of experiment: MIC for Enterococcus faecalis NCTC12201 strain (VRE). Particulars: NCTC12201 strain (VRE), Heart Infusion Broth medium, 37° C. overnight, turbidity, read-out: MIC Enterococcus faecalis NCTC 12201 (VRE).

≈ marks a conversion by molar mass, not a printed value.

On to `CCCCCCCCCC(O)=C1C(=O)N(C(=O)Nc2ccccc2)c2ccc(Br)cc21` [A033, N-(phenylaminocarbonyl)-5-bromo-3-decanoyl-2-oxyindole], for which the MIC in experiment [1] is 256 µg/mL (≈ 527 µM); in experiment [2], 256 µg/mL (≈ 527 µM); in experiment [3] it was 128 µg/mL (≈ 264 µM); in [4] it was 0.5 µg/mL (≈ 1.03 µM); in [5] it was 256 µg/mL (≈ 527 µM); in experiment [6] it was 256 µg/mL (≈ 527 µM). For the same molecule, the MIC in experiment [7] stood at 0.5 µg/mL (≈ 1.03 µM); in experiment [8], 256 µg/mL (≈ 527 µM); in [9] it was 256 µg/mL (≈ 527 µM).
For the molecule `CCCCC1CCC(C(O)=C2C(=O)N(C(=O)Nc3ccccc3)c3ccc(Br)cc32)CC1` (stereo not drawn) [A034, N-(phenylaminocarbonyl)-5-bromo-3-(4-butylcyclohexylcarbonyl)-2-oxyindole], the MIC in experiment [1] stood at 1 µg/mL (≈ 2.01 µM); in experiment [2] it was 64 µg/mL (≈ 129 µM); in [3] it was 128 µg/mL (≈ 257 µM); in [4], 0.5 µg/mL (≈ 1.01 µM); in [5] it was 1 µg/mL (≈ 2.01 µM); in experiment [6] it was 128 µg/mL (≈ 257 µM). Moreover, the MIC in experiment [7] is 0.5 µg/mL (≈ 1.01 µM); in experiment [8], 32 µg/mL (≈ 64.3 µM); in [9], 1 µg/mL (≈ 2.01 µM).
For `CCCCCCCCCCOCC(O)=C1C(=O)N(C(=O)Nc2ccccc2)c2ccc(Br)cc21` [A035, N-(phenylaminocarbonyl)-5-bromo-3-decyloxyacetyl-2-oxyindole], the MIC in experiment [1] was 4 µg/mL (≈ 7.55 µM); in [2], 64 µg/mL (≈ 121 µM); in [3], 128 µg/mL (≈ 242 µM); in [4], 0.5 µg/mL (≈ 0.944 µM); in [5] it was 8 µg/mL (≈ 15.1 µM); in experiment [6], 128 µg/mL (≈ 242 µM). In addition, the values for the MIC in experiment [7], in experiment [8] and in experiment [9] were 0.25 µg/mL (≈ 0.472 µM), 64 µg/mL (≈ 121 µM) and 2 µg/mL (≈ 3.78 µM), respectively.
As for `CCCCCCCCCCOCC(O)=C1C(=O)N(C(=O)Nc2ccccc2)c2ccc(F)cc21` [A036], the MIC is 0.5 µg/mL (≈ 1.07 µM) in experiment [1]; 128 µg/mL (≈ 273 µM) in experiment [2]; 128 µg/mL (≈ 273 µM) in experiment [3]; 0.25 µg/mL (≈ 0.534 µM) in experiment [4]; 0.25 µg/mL (≈ 0.534 µM) in experiment [5]; 128 µg/mL (≈ 273 µM) in experiment [6]. Moreover, the results for the MIC in [7], in experiment [8] and in experiment [9] were 0.25 µg/mL (≈ 0.534 µM), 128 µg/mL (≈ 273 µM) and 0.5 µg/mL (≈ 1.07 µM), respectively.
As for `CCCCCCCCCCSCC(O)=C1C(=O)N(C(=O)Nc2ccccc2)c2ccc(F)cc21` [A037, N-(phenylaminocarbonyl)-3-decylthioacetyl-5-fluoro-2-oxyindole], the MIC in experiment [1] is 0.5 µg/mL (≈ 1.03 µM); in [2] it was 2 µg/mL (≈ 4.13 µM); in experiment [3], 256 µg/mL (≈ 528 µM); in [4] it was 0.5 µg/mL (≈ 1.03 µM); in experiment [5], 0.25 µg/mL (≈ 0.516 µM); in [6] it was 256 µg/mL (≈ 528 µM). The results for the MIC in [7], in [8] and in [9] were 1 µg/mL (≈ 2.06 µM), 2 µg/mL (≈ 4.13 µM) and 0.5 µg/mL (≈ 1.03 µM), respectively.
For `CCCCCCCCCCOCC(O)=C1C(=O)N(C(=O)Nc2ccc(Br)cc2)c2ccccc21` [A038, N-(4-bromophenylaminocarbonyl)-3-decyloxyacetyl-2-oxyindole], the MIC amounted to 8 µg/mL (≈ 15.1 µM) in [1]; 64 µg/mL (≈ 121 µM) in experiment [2]; 128 µg/mL (≈ 242 µM) in experiment [3]; 32 µg/mL (≈ 60.4 µM) in experiment [4]; 64 µg/mL (≈ 121 µM) in experiment [5]; 128 µg/mL (≈ 242 µM) in experiment [6]. Also, the MIC in experiment [7] was found to be 16 µg/mL (≈ 30.2 µM); in experiment [8], 64 µg/mL (≈ 121 µM); in experiment [9], 16 µg/mL (≈ 30.2 µM).
With `CCCCCCCCCC(O)=C1C(=O)N(C(=O)Nc2ccc(Br)cc2)c2ccccc21` [A039, N-(4-bromophenylaminocarbonyl)-3-decanoyl-2-oxyindole], the MIC in [1] was determined as 256 µg/mL (≈ 527 µM); in [2], 256 µg/mL (≈ 527 µM); in experiment [3] it was 256 µg/mL (≈ 527 µM); in experiment [4] it was 64 µg/mL (≈ 132 µM); in experiment [5], 256 µg/mL (≈ 527 µM); in experiment [6], 256 µg/mL (≈ 527 µM). In addition, the figures for the MIC in experiment [7], in experiment [8] and in experiment [9] were 64 µg/mL (≈ 132 µM), 256 µg/mL (≈ 527 µM) and 256 µg/mL (≈ 527 µM), respectively.
Turning to `CCCCC1CCC(C(O)=C2C(=O)N(C(=O)Nc3ccc(Br)cc3)c3ccccc32)CC1` (stereo not drawn) [A040, N-(4-bromophenylaminocarbonyl)-3-(4-butylcyclohexylcarbonyl)-2-oxyindole], the MIC amounted to 1 µg/mL (≈ 2.01 µM) in experiment [1]; 128 µg/mL (≈ 257 µM) in [2]; 256 µg/mL (≈ 515 µM) in experiment [3]; 8 µg/mL (≈ 16.1 µM) in experiment [4]; 2 µg/mL (≈ 4.02 µM) in [5]; 256 µg/mL (≈ 515 µM) in [6]. Also, the MIC in experiment [7] is 4 µg/mL (≈ 8.04 µM); in experiment [8], 128 µg/mL (≈ 257 µM); in [9] it was 1 µg/mL (≈ 2.01 µM).
